One molecule from patent publication US20220079889A1, “USE OF CANNABANOIDS IN THE TREATMENT OF PROLIFERATIVE DIABETIC RETINOPATHY” (VERDANT PHARMACEUTICALS, LLC, priority 2020, published 2022) can be followed below.

Experiment [1] deals with vascular leakage from the CNV lesions. As to the kind of experiment: Laser injury CNV model, fluorescein angiography grading of leakage. In kind it is in vivo, Brown-Norway rats. Particulars: rats. On the procedure:
Lewis rats were euthanized by overdose anesthesia and perfused with PBS (500 ml/kg body weight (BW)). Eyes were immediately enucleated and the retinal pigment epithelium (RPE)-choroid complex was obtained from the rat eyes and homogenized in extraction reagent (TRIzol Reagent; Invitrogen, Carlsbad, Calif.). As a control, the retinal tissues were separately obtained and processed. Total RNA was prepared according to the manufacturer's protocol, and equal amounts ([…]) of total RNA were reverse transcribed with a First-Strand cDNA synthesis kit (GE Healthcare, Buckinghamshire, UK) at 37° C. for 1 hour in a 15 μl reaction volume. […] PCR products were analyzed by electrophoresis in a 1.5% agarose gel and stained with ethidium bromide ([…]). The expected sizes of the amplified cDNA fragments of CB and GAPDH were 341 bp and 387 bp, respectively Band densities were quantified using NIH Image 1.41 software (available by ftp from zippy.nimh.nih.gov/or from the web site, rsb info.nih.gov/nih-image: developed by Wayne Rasband, National Institutes of Health, Bethesda, Md.). […]
Seven days after laser injury, vascular leakage from the CNV lesions was assessed using fluorescein angiography (FA), as described previously (Zambarakji et al. (2001) IOVS 42: 1553-60). […]

In the next experiment the test system is TNF-α. As to the kind of experiment: ELISA of RPE-choroid complex after laser injury: TNF-α. In kind it is in vivo, rat. The following applies: laser-treated animals, 3 days after laser injury; 0.3 mg/kg BW daily i.p. On the procedure: To block CB, a specific CBD, Compound 11 described above, was used (R-tech Ueno, Ltd., Tokyo, Japan). After laser injury, the inhibitor (0.3 mg/kg BW) was administered to the animals by daily i.p. injections. As a control, some animals received the same regimen for the vehicle solution alone.
The RPE-choroid complex was carefully isolated from eyes 3 days after photocoagulation and placed in 300 μl of lysis buffer supplemented with protease inhibitors and sonicated. The lysate was centrifuged at 15,000 rpm for 15 minutes at 4° C. and the levels of TNF-α, monocyte chemotactic protein (MCP)-1, and intercellular adhesion molecule (ICAM)-1 were determined with rat TNF-α (BI) bioscience), MCP-1 (BD bioscience) and ICAM-1 (R&D Systems, Minneapolis, Minn.) enzyme-linked immunosorbent assay (ELISA) kits according to the manufacturers' protocols. Total protein concentration was determined using a Bio-Rad Protein Assay Kit (Bio-Rad Laboratories Hercules, Calif.) and dilutions of bovine serum albumin (Bio-Rad Laboratories) as standards.
On the technique in general: ELISA stands for enzyme-linked immunosorbent assay.

Turning to `CC(=O)Nc1nc(CCc2ccc(NC(=N)NN)cc2)c(Cc2ccc(S(C)(=O)=O)cc2)s1` [Compound II], the “effect on fluorescent angiographic leakage (in words)” value in experiment [1] was “significantly decreased”. Besides, the “protein level of TNF-α in the RPE-choroid complex” value in the experiment with TNF-α came to 360 ± 12 pg/mg.
